# Reference: patent US20150105252A1, “SUBSTITUTED PYRAZOLES AS HERBICIDES” (E I DU PONT DE NEMOURS AND COMPANY, priority 2013, published 2015)
# Tests used:
# foxtail, giant = test: Test A preemergence; type: in vivo, Setaria faberii; settings: preemergence
# In short: (§1)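 Ratings express plant response from 0 (no effect) to 100 (complete control), judged visually against untreated controls after approximately 10 days in the greenhouse. Preemergence applications were made as directed soil sprays onto seeded loam–sand mix, and postemergence applications onto 2–10 cm plants at one- to two-leaf stage.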
# rice = test: Test B flood; type: in vivo, Oryza sativa; settings: 250 g ai/ha, visual rating on 0 to 100 scale (0 no effect, 100 complete control), 13 to 15 days
# In short: (§2)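 Two-leaf-stage plants, pots flooded (3 cm above soil) and treated through the water, which stayed at that depth. After 13–15 days in greenhouse conditions, visual assessment versus controls: 0 is no effect, 100 complete control, dash means no result.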
# pigweed = test: Test C postemergence; type: in vivo, Amaranthus retroflexus; settings: for Pigweed plant response rating / Plant response rating, Pigweed: postemergence; for Pigweed plant response rating: 62 g ai/ha, scale 0 to 100
# In short: (§3)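 In this greenhouse assay, seeded soil (loam plus sand) or emerged seedlings in peat-vermiculite medium were treated with formulated compound. Roughly two weeks later (13–15 days), each species was scored visually relative to controls, from 0 for no effect to 100 for complete control.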
# lambsquarters = test: Test C postemergence; type: in vivo, Chenopodium album; settings: for Plant response rating (scale of 0 to 100 where 0 is no effect and 100 is complete control), Lambsquarters: Postemergence, 31 g ai/ha, visually evaluated after 13 to 15 days; for Lambsquarters plant response rating / Plant response rating, Lambsquarters: postemergence; for Lambsquarters plant response rating: 62 g ai/ha, scale 0 to 100
# In short: as §3
# barnyardgrass [1] = test: Test B flood; type: in vivo, Echinochloa crus-galli; settings: 250 g ai/ha, visual rating on 0 to 100 scale (0 no effect, 100 complete control), 13 to 15 days
# In short: as §2
# velvetleaf = test: Test C postemergence; type: in vivo, Abutilon theophrasti
# In short: as §3
# nutsedge, yellow = test: Test C postemergence; type: in vivo, Cyperus esculentus; settings: for Plant response rating (scale of 0 to 100 where 0 is no effect and 100 is complete control), Nutsedge, Yellow: Postemergence, 31 g ai/ha, visually evaluated after 13 to 15 days; for Nutsedge, Yellow plant response rating / Plant response rating, Nutsedge, Yellow: postemergence; for Nutsedge, Yellow plant response rating: 62 g ai/ha, scale 0 to 100
# In short: as §3
# barnyardgrass [2] = test: Test A postemergence; type: in vivo, Echinochloa crus-galli
# In short: as §1
# ducksalad = test: Test B flood; type: in vivo, Heteranthera limosa; settings: 250 g ai/ha, visual rating on 0 to 100 scale (0 no effect, 100 complete control), 13 to 15 days
# In short: as §2
# waterhemp = test: Test C preemergence; type: in vivo, Amaranthus rudis; settings: for Waterhemp plant response rating / Plant response rating, Waterhemp: preemergence; for Plant response rating, Waterhemp: scale 0 to 100, 0 = no effect, 100 = complete control
# In short: as §3
# oat, wild = test: Test C postemergence; type: in vivo, Avena fatua; settings: for Plant response rating (scale of 0 to 100 where 0 is no effect and 100 is complete control), Oat, Wild: Postemergence, 31 g ai/ha, visually evaluated after 13 to 15 days; for Oat, Wild plant response rating / Plant response rating, Oat, Wild: postemergence; for Oat, Wild plant response rating: 62 g ai/ha, scale 0 to 100
# In short: as §3
# kochia = test: Test C postemergence; type: in vivo, Kochia scoparia; settings: for Plant response rating (scale of 0 to 100 where 0 is no effect and 100 is complete control), Kochia: Postemergence, 31 g ai/ha, visually evaluated after 13 to 15 days; for Kochia plant response rating / Plant response rating, Kochia: postemergence; for Kochia plant response rating: 62 g ai/ha, scale 0 to 100
# In short: as §3
# johnsongrass = test: Test C postemergence; type: in vivo, Sorghum halepense; settings: for Plant response rating (scale of 0 to 100 where 0 is no effect and 100 is complete control), Johnsongrass: Postemergence, 31 g ai/ha, visually evaluated after 13 to 15 days; for Johnsongrass plant response rating / Plant response rating, Johnsongrass: postemergence; for Johnsongrass plant response rating: 62 g ai/ha, scale 0 to 100
# In short: as §3
# oilseed rape = test: Test C postemergence; type: in vivo, Brassica napus; settings: for Oilseed Rape plant response rating / Plant response rating, Oilseed Rape: postemergence; for Oilseed Rape plant response rating: 62 g ai/ha, scale 0 to 100
# In short: as §3
# [3] = 500 g ai/ha, visual injury after approx. 10 days, 0 to 100 scale (0 no effect, 100 complete control)
# [4] = Postemergence, 31 g ai/ha, visually evaluated after 13 to 15 days
# [5] = 250 g ai/ha, scale 0 to 100 (0 no effect, 100 complete control)
# [6] = 125 g ai/ha, scale 0 to 100, 0 no effect, 100 complete control
# [7] = postemergence, 250 g ai/ha, scale 0 to 100 (0 no effect, 100 complete control)
# [8] = postemergence, 125 g ai/ha, about 10 days, visual rating on 0 to 100 scale (0 no effect, 100 complete control)
# [9] = 31 g ai/ha, visual rating, scale 0 to 100 (0 no effect, 100 complete control), 13 to 15 days
smiles,measurement,setting,value
CCc1cc(C(=O)NC2CC2)nn1Cc1ccnc(OC(F)F)c1 [Compound 98],"Foxtail, Giant plant response rating","foxtail, giant; 125 g ai/ha, visual injury, 0 to 100 scale, approx. 10 days",100
same,"Foxtail, Giant plant response rating","foxtail, giant; [3]",100
same,"Plant response rating, Rice",rice,0
same,"Plant response rating (scale of 0 to 100 where 0 is no effect and 100 is complete control), Pigweed",pigweed; [4],10
same,Pigweed plant response rating,pigweed,10
same,"Plant response rating, Pigweed",pigweed; [5],90
same,"Plant response rating, Pigweed",pigweed; [6],30
same,"Plant response rating (scale of 0 to 100 where 0 is no effect and 100 is complete control), Lambsquarters",lambsquarters,60
same,Lambsquarters plant response rating,lambsquarters,70
same,"Plant response rating, Lambsquarters",lambsquarters; [5],95
same,"Plant response rating, Lambsquarters",lambsquarters; [6],90
same,"Plant response rating, Barnyardgrass",barnyardgrass [1],0
same,"Plant response rating (scale of 0 to 100 where 0 is no effect and 100 is complete control), Velvetleaf",velvetleaf; [4],15
same,Velvetleaf plant response rating,"velvetleaf; postemergence, 62 g ai/ha, scale 0 to 100",20
same,"Plant response rating, Velvetleaf",velvetleaf; [7],50
same,"Plant response rating, Velvetleaf","velvetleaf; postemergence, 125 g ai/ha, scale 0 to 100, 0 no effect, 100 complete control",20
same,"Plant response rating (scale of 0 to 100 where 0 is no effect and 100 is complete control), Nutsedge, Yellow","nutsedge, yellow",0
same,"Nutsedge, Yellow plant response rating","nutsedge, yellow",5
same,"Plant response rating, Nutsedge, Yellow","nutsedge, yellow; [5]",5
same,"Plant response rating, Nutsedge, Yellow","nutsedge, yellow; [6]",5
same,Barnyardgrass plant response rating,"barnyardgrass [2]; Postemergence, 500 g ai/ha, visual rating after approx. 10 days, 0 to 100 scale (0 no effect, 100 complete control)",90
same,Barnyardgrass plant response rating,barnyardgrass [2]; [8],90
same,"Plant response rating, Ducksalad",ducksalad,70
same,"Plant response rating (scale of 0 to 100), Waterhemp","waterhemp; Preemergence, 250 g ai/ha",100
same,Waterhemp plant response rating,waterhemp; [9],98
same,"Plant response rating, Waterhemp","waterhemp; 62 g ai/ha, 13 to 15 days",98
same,Waterhemp plant response rating,"waterhemp; 125 g ai/ha, scale 0 to 100, 0 is no effect, 100 is complete control",100
same,"Plant response rating (scale of 0 to 100 where 0 is no effect and 100 is complete control), Oat, Wild","oat, wild",5
same,"Oat, Wild plant response rating","oat, wild",5
same,"Plant response rating, Oat, Wild","oat, wild; [5]",25
same,"Plant response rating, Oat, Wild","oat, wild; [6]",10
same,"Plant response rating (scale of 0 to 100 where 0 is no effect and 100 is complete control), Kochia",kochia,40
same,Kochia plant response rating,kochia,75
same,"Plant response rating, Kochia",kochia; [5],85
same,"Plant response rating, Kochia",kochia; [6],85
same,"Plant response rating (scale of 0 to 100 where 0 is no effect and 100 is complete control), Johnsongrass",johnsongrass,0
same,Johnsongrass plant response rating,johnsongrass,5
same,"Plant response rating, Johnsongrass",johnsongrass; [5],20
same,"Plant response rating, Johnsongrass",johnsongrass; [6],5
same,"Plant response rating (scale of 0 to 100 where 0 is no effect and 100 is complete control), Oilseed Rape",oilseed rape; [4],20
same,Oilseed Rape plant response rating,oilseed rape,25
same,"Plant response rating, Oilseed Rape",oilseed rape; [5],30
same,"Plant response rating, Oilseed Rape",oilseed rape; [6],30
CCc1cc(C(=O)NCC2CC2)nn1Cc1ccnc(C(F)(F)F)c1 [Compound 199],"Foxtail, Giant plant response rating (0 to 100 scale)","foxtail, giant; 125 g ai/ha, visual injury approx. 10 days after treatment",100
same,"Foxtail, Giant plant response rating","foxtail, giant; [3]",100
same,"Plant response rating, Rice",rice,45
same,Pigweed plant response rating,pigweed,60
same,"Plant response rating, Pigweed",pigweed; [5],90
same,"Plant response rating, Pigweed",pigweed; [6],75
same,"Plant response rating (scale of 0 to 100 where 0 is no effect and 100 is complete control), Lambsquarters",lambsquarters,25
same,Lambsquarters plant response rating,lambsquarters,85
same,"Plant response rating, Lambsquarters",lambsquarters; [5],95
same,"Plant response rating, Lambsquarters",lambsquarters; [6],70
same,"Plant response rating, Barnyardgrass",barnyardgrass [1],55
same,"Plant response rating, Velvetleaf",velvetleaf; [7],60
same,"Plant response rating (scale of 0 to 100 where 0 is no effect and 100 is complete control), Nutsedge, Yellow","nutsedge, yellow",5
same,"Nutsedge, Yellow plant response rating","nutsedge, yellow",10
same,"Plant response rating, Nutsedge, Yellow","nutsedge, yellow; [5]",20
same,"Plant response rating, Nutsedge, Yellow","nutsedge, yellow; [6]",45
same,Barnyardgrass plant response rating,"barnyardgrass [2]; Postemergence, 500 g ai/ha, 0 to 100 scale (0 no effect, 100 complete control)",90
same,Barnyardgrass plant response rating,barnyardgrass [2]; [8],70
same,"Plant response rating, Ducksalad",ducksalad,90
same,Waterhemp plant response rating,waterhemp; [9],98
same,Waterhemp plant response rating,"waterhemp; 62 g ai/ha, scale 0 to 100 (0 no effect, 100 complete control), 13 to 15 days",100
same,"Plant response rating, Waterhemp","waterhemp; 125 g ai/ha, 13 to 15 days",100
same,Waterhemp plant response rating,"waterhemp; 250 g ai/ha, scale 0 to 100, 0 is no effect, 100 is complete control",100
same,"Plant response rating (scale of 0 to 100 where 0 is no effect and 100 is complete control), Oat, Wild","oat, wild",5
same,"Oat, Wild plant response rating","oat, wild",10
same,"Plant response rating, Oat, Wild","oat, wild; [5]",80
same,"Plant response rating, Oat, Wild","oat, wild; [6]",30
same,"Plant response rating (scale of 0 to 100 where 0 is no effect and 100 is complete control), Kochia",kochia,80
same,Kochia plant response rating,kochia,85
same,"Plant response rating, Kochia",kochia; [5],95
same,"Plant response rating, Kochia",kochia; [6],90
same,"Plant response rating (scale of 0 to 100 where 0 is no effect and 100 is complete control), Johnsongrass",johnsongrass,5
same,Johnsongrass plant response rating,johnsongrass,5
same,"Plant response rating, Johnsongrass",johnsongrass; [5],55
same,"Plant response rating, Johnsongrass",johnsongrass; [6],40
same,Oilseed Rape plant response rating,oilseed rape,45
same,"Plant response rating, Oilseed Rape",oilseed rape; [5],65
same,"Plant response rating, Oilseed Rape",oilseed rape; [6],55
